Test results as given in publication PMC11866022, “Long-Chain Cyclic Arylguanidines as Multifunctional Serotonin Receptor Ligands with Antiproliferative Activity” (ACS Omega, 2025).
Several values for one entry are separate records, joined by “and”; a condition that tells them apart may be missing. Identical values can stand only once. Like-named read-outs stand apart in the source and are kept apart here.

Key:
[1] = calibration standards, assigned values, no reference given; cited from earlier work
[2] = calibration standards, assigned values, no reference given; cited from earlier work; remark: listed apart in the source
U-251 glioblastoma cells = assay: Antiproliferative activity (MTS), U-251; assay type: cell-based, human; conditions: MTS assay, 72 h
Method: (§1) These cell lines were characterized by different mutation profiles, the main one being the variable status of the p53 protein. In detail, U87MG cells have a wild-type p53 protein, while astrocytoma and the rest of GBM cells harbor mutated p53 protein. Additional assays were performed on MCF7 breast cancer and AsPC-1 pancreatic cancer cells. The wide range of tested lines was aimed at screening the anticancer potential of the tested compounds. The first represents one of the most common and the second one of the most aggressive cancers in the world. Comparing the activity of compounds on GBM cells to other types of cancer may reveal their selectivity and usefulness in targeted therapies. The cytotoxicity of the compounds on normal human astrocytes (NHA) and Feline catus astrocyte (PG-4) was determined. Tests on normal lines serve to verify the potential toxicity of the tested compounds on healthy cells. Due to the targeting of CNS tumors, astrocytes were selected as normal lines.
(§2) The detailed procedure is presented in previous publications.[53] […] Cells were cultured in appropriate media, supplemented with FBS, antibiotics, and other supplements, and incubated at 37 °C with 5% CO2. […] Cell viability was assessed using the MTS assay, and the inhibitory concentration (IC50) was calculated using GraphPad Prism 8.0. Each compound was tested in triplicate across multiple experiments.

[3] = tested on: LN-229 glioblastoma cells; assay: Antiproliferative activity (MTS), LN-229; assay type: cell-based, human; conditions: MTS assay, 72 h
Method: as §1, §2

[4] = tested on: normal human astrocytes (NHA); assay: Cytotoxicity (MTS), normal human astrocytes; assay type: cell-based; conditions: 72 h, normal human astrocytes, MTS assay
Method: as §1, with “The chosen group of ligands was further examined for their ability to inhibit proliferation across multiple cancer cell lines related to the CNS system (1321N1, U87MG, LN-229, and U-251). These” for “These”
(§3) The detailed procedure is presented in previous publications.[53] Briefly, the study utilized various human cancer and normal cell lines, including LN-229 (glioblastoma), MCF7 (breast carcinoma), HepG2 (hepatoma), U-251 (glioblastoma), U87MG (glioblastoma), AsPC-1 (pancreatic adenocarcinoma), and NHA (normal human astrocytes). Cells were cultured in appropriate media, supplemented with FBS, antibiotics, and other supplements, and incubated at 37 °C with 5% CO2. Compounds were dissolved in DMSO, prepared at various concentrations (1–25 μM), and applied to the cells for 72 h. Cell viability was assessed using the MTS assay, and the inhibitory concentration (IC50) was calculated using GraphPad Prism 8.0. Each compound was tested in triplicate across multiple experiments.

[5] = target: T1, human serum albumin (HSA) (Homo sapiens, UniProt P02768); assay: HSA binding by biochromatography (HSA column); assay type: in vitro ADME
T1 construct: purchased
Method: (§4) Lipophilicity and affinity for phospholipids for each investigated molecule were assessed. Additionally, selected compounds with the highest biological activities have been characterized by their affinity plasma proteins. All experiments were performed using protocols developed by Valko.[35] These methods facilitated the calculation of chromatographic hydrophobicity indices (CHI) and plasma protein binding percentages (%PPB) in a biochromatographic experiment, with results compared to the reference. A detailed description of the experiments is provided in the Supporting Information (SI), along with the raw data. […] Although high lipophilicity may limit the medical use of the analyzed compounds since they may tend to accumulate excessively in the human body, it is remarkable that several clinically used drugs also have high lipophilicity. […] (Table 5).
(§5) The detailed procedure is presented in previous publications.[53] High-performance liquid chromatography (HPLC) analyses were conducted using the Prominence-1 LC-2030C 3D system (Shimadzu) with a DAD detector, employing three different chromatographic columns with specific stationary phases and mobile phases. The analysis was performed at 30 °C with a flow rate of 1.5 mL/min for IAM and C18 columns, and 0.9 mL/min for the Chiralpak column. Calibration standards for the columns were sourced from various suppliers and dissolved in dimethyl sulfoxide. Detection occurred in the UV range (190–300 nm) with a 5 μL injection volume. Each compound was analyzed in triplicate. Retention times for the tested compounds and calibration standards are provided in the Supporting Information (Tables S1 and S2).

MCF7 breast cancer cells = assay: Antiproliferative activity (MTS), MCF7; assay type: cell-based, human; conditions: MTS assay, 72 h
Method: as §1, §2

[6] = Affinity to phospholipids, CHI IAM (Valko protocol); assay type: physicochemical; conditions: IAM column
Method: as §4, §5

1321N1 astrocytoma cells = assay: Antiproliferative activity (MTS), 1321N1; assay type: cell-based, human; conditions: MTS assay
Method: as §1, §2
Supplementary materials - Biological research […]

5-HT6 = target: T2, 5-HT6 (Homo sapiens, UniProt P50406); assay: Radioligand binding assay, 5-HT6 ([3H]-LSD); conditions: HEK293 cell line with human 5-HT6R; 2 nM [3H]-LSD
T2 construct: expressed in transfected cells; host or cells: HEK293
Method: Ligand affinity for 5-HT6 receptors was subsequently tested with a radioligand binding assay, using the HEK293 cell line with human 5-HT6R, aiming to select compounds with the strongest affinity. Three compounds belonging to 2-naphthalenesulfonamide derivatives of 3,4-dihydroquinazolin-2-amines were obtained (Table 1).
The detailed procedure is presented in previous publications.[53] Assays were performed by incubating for 1 h at 37 °C (room temperature for 5-HT1A) in 200 μL volumes on 96-well plates. The reaction was terminated by rapid filtration using Unifilter plates, and radioactivity on the filters was measured with a PerkinElmer Microbeta plate reader. Radioligands used were:
Eight concentrations (10^–4 to 10^–11 M) were tested in triplicate for each compound. Inhibition constants (Ki) were calculated using the Cheng–Prusoff equation.[54] The results are expressed as the means of at least two independent experiments.

[7] = tested on: AsPC-1 pancreatic cancer cells; assay: Antiproliferative activity (MTS), AsPC-1; assay type: cell-based, human; conditions: MTS assay, 72 h
Method: as §1, with “The chosen group of ligands was further examined for their ability to inhibit proliferation across multiple cancer cell lines related to the CNS system (1321N1, U87MG, LN-229, and U-251). These” for “These”
as §3

[8] = Metabolic stability in mouse liver microsomes; assay type: in vitro ADME; conditions: MLMs, 120 min
Description: Moving on to the next parameter, which is metabolism, we determined metabolic stability, using mouse liver microsomes (MLMs). […]
Main metabolic pathways are marked in red.

[9] = Lipophilicity, chromatographic hydrophobicity index on C18 (Valko protocol); assay type: physicochemical
Method: as §4, §5

U87MG glioblastoma cells = assay: Antiproliferative activity (MTS), U87MG; assay type: cell-based, human; conditions: MTS assay
Method: as §1, §2
Supplementary materials - Biological research
B) U87MG glioblastoma multiforme line.
and U87MG glioblastoma multiforme line for C) PP 3; D) PP 6; E) PP 8; F) PP 10; G) PP 11; H) PP

HSA and AGP (24:1) = assay: in vitro; conditions: human, plasma
[10] = tested on: HSA and AGP in a ratio 24:1; conditions: human

T2 sequence (P50406 whole entry): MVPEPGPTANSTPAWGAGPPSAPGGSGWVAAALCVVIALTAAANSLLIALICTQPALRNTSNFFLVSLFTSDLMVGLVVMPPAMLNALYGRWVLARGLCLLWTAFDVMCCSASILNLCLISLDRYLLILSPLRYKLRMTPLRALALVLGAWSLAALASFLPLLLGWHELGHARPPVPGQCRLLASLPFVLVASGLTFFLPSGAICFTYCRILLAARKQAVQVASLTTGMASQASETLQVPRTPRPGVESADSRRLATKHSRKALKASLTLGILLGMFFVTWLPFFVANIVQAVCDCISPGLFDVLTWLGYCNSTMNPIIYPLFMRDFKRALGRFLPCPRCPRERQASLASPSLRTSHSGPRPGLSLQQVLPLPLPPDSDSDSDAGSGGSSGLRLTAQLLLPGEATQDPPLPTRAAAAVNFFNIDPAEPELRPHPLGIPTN
T1 sequence (P02768 25-609): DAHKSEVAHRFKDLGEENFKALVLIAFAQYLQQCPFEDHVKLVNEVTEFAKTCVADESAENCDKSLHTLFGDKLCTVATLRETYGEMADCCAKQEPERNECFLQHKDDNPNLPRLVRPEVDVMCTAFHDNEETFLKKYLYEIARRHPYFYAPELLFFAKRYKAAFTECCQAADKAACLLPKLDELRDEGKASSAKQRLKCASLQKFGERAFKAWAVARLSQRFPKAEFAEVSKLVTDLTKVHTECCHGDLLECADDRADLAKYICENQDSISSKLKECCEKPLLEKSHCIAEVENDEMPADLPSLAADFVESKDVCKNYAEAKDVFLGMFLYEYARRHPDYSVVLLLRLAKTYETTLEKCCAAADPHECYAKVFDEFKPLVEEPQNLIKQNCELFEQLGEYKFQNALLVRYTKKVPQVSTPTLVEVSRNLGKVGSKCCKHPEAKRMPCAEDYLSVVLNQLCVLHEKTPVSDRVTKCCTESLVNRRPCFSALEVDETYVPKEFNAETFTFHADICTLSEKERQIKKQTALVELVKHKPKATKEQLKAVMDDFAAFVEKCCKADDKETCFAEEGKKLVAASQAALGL

For CC(=O)c1ccccc1 [Acetophenone], the “CHI C18 at pH 2.6 of the calibration set” value [1] is given as 64.1 and the “CHI IAM of the calibration set” value [2] is given as 17.2.
CN(C)C/C=C/C(=O)Nc1cc2c(Nc3ccc(F)c(Cl)c3)ncnc2cc1O[C@H]1CCOC1 [Afatinib, reference compound] showed an IC50 (U-251 glioblastoma cells; Homo sapiens, U-251) of 27 µM, an IC50 ([3]; Homo sapiens, LN-229) of 9.8 µM and an IC50 ([4]; Homo sapiens, Astrocyte) of 7.5 µM.
For c1ccc2[nH]cnc2c1 [Benzimidazole], the “CHI C18 at pH 2.6 of the calibration set” value [1] is listed as 6.3.
For CCCC(=O)c1ccccc1 [Butyrophenone], the “CHI C18 at pH 2.6 of the calibration set” value [1] is listed as 87.3 and the “CHI IAM of the calibration set” value [2] is listed as 32.
For COc1cc2c(c(OC)c1OC)-c1ccc(OC)c(=O)cc1[C@@H](NC(C)=O)CC2 [Colichicine], the “CHI C18 at pH 2.6 of the calibration set” value [1] is given as 43.9.
In the case of c1ccc2[nH]ccc2c1 [Indole], the “CHI C18 at pH 2.6 of the calibration set” value [1] is listed as 72.1.
With CC1NC(NCCCCCCNS(=O)(=O)c2cccc3ccccc23)=Nc2cccc(F)c21 (centres unmarked) [PP 11, N-{6-[(5-Fluoro-4-methyl-3,4-dihydroquinazolin-2-yl)amino]hexyl}naphthalene-1-sulfonamide] the IC50 (U-251 glioblastoma cells; Homo sapiens, U-251) was 12.2 ± 0.3 µM, the “%HSA” value ([5]; HSA column) was 99.2% and the logKHSA ([5]; HSA column) was 1.75 and 1.8. For the same compound, the IC50 (MCF7 breast cancer cells; Homo sapiens, MCF7) was 9.1 ± 0.8 µM, the “CHI IAM” value [6] was 60.1 and the IC50 ([3]; Homo sapiens, LN-229) was over 25 µM. For the same compound, the IC50 (1321N1 astrocytoma cells; Homo sapiens, 1321-N1) was 5.7 ± 0.1 µM, the Ki (5-HT6) was 222 ± 56 nM and the IC50 ([7]; Homo sapiens, ASPC1) was 13.8 ± 0.3 µM. For the same compound, the main metabolic pathway [8] was “double hydroxylation and double bond reduction”, the “metabolic stability, % of remaining” value [8] was 74.22% and the “CHI C18 pH 2.6” value [9] was 103.4. For the same compound, the “CHI C18 pH 7.4” value [9] was 103.1, the “CHI C18 pH 10.5” value [9] was 93.1 and the IC50 ([4]; Homo sapiens, Astrocyte) was 4.5 µM. The IC50 [4] was 4.4 ± 1.3 µM and the IC50 (U87MG glioblastoma cells; Homo sapiens, U-87 MG) was 8.5 ± 0.7 µM.
For CCC(=O)c1ccccc1 [Propiophenone], the “CHI C18 at pH 2.6 of the calibration set” value [1] is given as 77.4 and the “CHI IAM of the calibration set” value [2] is given as 25.9.
For Cn1c(=O)c2[nH]cnc2n(C)c1=O [Theophylline], the “CHI C18 at pH 2.6 of the calibration set” value [1] is given as 17.9.
For CCCCC(=O)c1ccccc1 [Valerophenone], the “CHI C18 at pH 2.6 of the calibration set” value [1] is given as 96.4 and the “CHI IAM of the calibration set” value [2] is given as 37.3.
For CC(=O)CC(c1ccccc1)c1c(O)c2ccccc2oc1=O (centres unmarked) [Warfarin], the fraction unbound (HSA and AGP (24:1)) was 0.015 and the “PPB kD” value [10] was 9.5 µM.
Compound “N-{2-[4-(1,2-Benzothiazol-3-yl)piperazin-1-yl]ethyl}-1,2-dihydroquinazolin-2-amine [PP 21]” has an IC50 (U-251 glioblastoma cells) of 13 ± 0.4 µM, an IC50 (MCF7 breast cancer cells) of over 25 µM and an IC50 [3] of 9.9 ± 0.7 µM. For the same compound, the Ki (5-HT6) was 605 ± 151 nM, the IC50 [7] was 7.4 ± 0.5 µM and the IC50 [4] was 4.7 ± 0.2 µM.
In the case of “N-{2-[4-(1-Benzothiophen-4-yl)piperazin-1-yl]ethyl}-1,2-dihydroquinazolin-2-amine [PP 22]”, the IC50 (U-251 glioblastoma cells) is reported as 4.3 ± 0.6 µM, the “%HSA” value [5] is reported as 98.4% and the IC50 (MCF7 breast cancer cells) is reported as 14.5 ± 0.2 µM. For the same compound, the “CHI IAM” value [6] was 56.4, the IC50 [3] was over 25 µM and the IC50 (1321N1 astrocytoma cells) was 10.4 ± 0.6 µM. The Ki (5-HT6) was 278 ± 70 nM, the IC50 [7] was 12.5 ± 0.4 µM and the “CHI C18 pH 2.6” value [9] was 56.4. The “CHI C18 pH 7.4” value [9] was 115.8, the “CHI C18 pH 10.5” value [9] was 168.7 and the IC50 [4] was 8.1 ± 0.2 µM. It also gave an IC50 (U87MG glioblastoma cells) of 13.8 ± 0.9 µM.
